In ChEMBL document CHEMBL3621069 (Bioorg Med Chem Lett, 2015):
pIC50: −log10 of the molar value.

Key:
Salmonella typhimurium [1] = test: Genotoxicity in Salmonella typhimurium TA98 at 5000 µg/plate in absence of liver S9 fraction by Ames test; format: toxicity, organism-based; conditions: salmonella enterica subsp. enterica serovar typhimurium
[2] = molecular target: T1, Tyrosine-protein kinase SYK (Homo sapiens, UniProt P43405); test: Inhibition of purified full-length human SYK pre-incubated for 30 mins at room temperature before Ulight-TK peptide substrate addition and measured 1 hr after substrate addition by cell free kinase assay
Salmonella typhimurium [3] = test: Genotoxicity in Salmonella typhimurium TA98 at 5000 µg/plate in presence of liver S9 fraction by Ames test; format: toxicity, organism-based; conditions: salmonella enterica subsp. enterica serovar typhimurium
Plasma = test: Unbound fraction in human plasma; format: ADME, cell-free
[4] = molecular target: T1, Tyrosine-protein kinase SYK; test: Inhibition of SYK-mediated TNFalpha production in human IgG-stimulated human THP1 cells incubated for 18 hrs by ELISA method; format: cell-based, THP-1
Salmonella typhimurium [5] = test: Mutagenicity in Salmonella typhimurium TA98 at 5000 µg/plate in absence of liver S9 fraction by Ames test; format: toxicity, organism-based; conditions: salmonella enterica subsp. enterica serovar typhimurium
Salmonella typhimurium [6] = test: Mutagenicity in Salmonella typhimurium TA100 at 5000 µg/plate in presence of liver S9 fraction by Ames test; format: toxicity, organism-based; conditions: salmonella enterica subsp. enterica serovar typhimurium
Escherichia coli [7] = test: Mutagenicity in Escherichia coli WP2 uvrA at 5000 µg/plate in absence of liver S9 fraction by Ames test; format: toxicity, organism-based
Escherichia coli [8] = test: Genotoxicity in Escherichia coli WP2 uvrA at 5000 µg/plate in presence of liver S9 fraction by Ames test; format: toxicity, organism-based
Salmonella typhimurium [9] = test: Mutagenicity in Salmonella typhimurium TA1535 at 5000 µg/plate in presence of liver S9 fraction by Ames test; format: toxicity, organism-based; conditions: salmonella enterica subsp. enterica serovar typhimurium
Salmonella typhimurium [10] = test: Genotoxicity in Salmonella typhimurium TA1537 at 5000 µg/plate in absence of liver S9 fraction by Ames test; format: toxicity, organism-based; conditions: salmonella enterica subsp. enterica serovar typhimurium
[11] = molecular target: Vascular endothelial growth factor receptor 2 (Homo sapiens, UniProt P35968); test: Inhibition of KDR (unknown origin) pre-incubated for 30 mins at room temperature before substrate addition and measured 1 hr after substrate addition by cell free kinase assay
[12] = Apparent permeability from basolateral to apical side in human Caco2 cells; format: ADME, cell-based; conditions: Caco-2
[13] = AUClast in dog at 5 mg/kg, iv; format: ADME, organism-based, Canis lupus familiaris; set-up: dose 5 mg/kg, time 0 - last, route intravenous; conditions: in vivo
[14] = Oral bioavailability in dog at 10 mg/kg; format: ADME, organism-based, Canis lupus familiaris; conditions: in vivo
[15] = molecular target: Tyrosine-protein kinase Lck (Homo sapiens) (UniProt P06239); test: Inhibition of human Lck at 0.1 uM
[16] = molecular target: Serine/threonine-protein kinase PLK3 (Homo sapiens) (UniProt Q9H4B4); test: Inhibition of human Plk3 at 0.1 uM
[17] = molecular target: Mitogen-activated protein kinase kinase kinase 9 (Homo sapiens) (UniProt P80192); test: Inhibition of human MLK1 at 0.1 uM
Sequence of Mitogen-activated protein kinase kinase kinase 9 (Homo sapiens) (P80192 whole entry, looked up): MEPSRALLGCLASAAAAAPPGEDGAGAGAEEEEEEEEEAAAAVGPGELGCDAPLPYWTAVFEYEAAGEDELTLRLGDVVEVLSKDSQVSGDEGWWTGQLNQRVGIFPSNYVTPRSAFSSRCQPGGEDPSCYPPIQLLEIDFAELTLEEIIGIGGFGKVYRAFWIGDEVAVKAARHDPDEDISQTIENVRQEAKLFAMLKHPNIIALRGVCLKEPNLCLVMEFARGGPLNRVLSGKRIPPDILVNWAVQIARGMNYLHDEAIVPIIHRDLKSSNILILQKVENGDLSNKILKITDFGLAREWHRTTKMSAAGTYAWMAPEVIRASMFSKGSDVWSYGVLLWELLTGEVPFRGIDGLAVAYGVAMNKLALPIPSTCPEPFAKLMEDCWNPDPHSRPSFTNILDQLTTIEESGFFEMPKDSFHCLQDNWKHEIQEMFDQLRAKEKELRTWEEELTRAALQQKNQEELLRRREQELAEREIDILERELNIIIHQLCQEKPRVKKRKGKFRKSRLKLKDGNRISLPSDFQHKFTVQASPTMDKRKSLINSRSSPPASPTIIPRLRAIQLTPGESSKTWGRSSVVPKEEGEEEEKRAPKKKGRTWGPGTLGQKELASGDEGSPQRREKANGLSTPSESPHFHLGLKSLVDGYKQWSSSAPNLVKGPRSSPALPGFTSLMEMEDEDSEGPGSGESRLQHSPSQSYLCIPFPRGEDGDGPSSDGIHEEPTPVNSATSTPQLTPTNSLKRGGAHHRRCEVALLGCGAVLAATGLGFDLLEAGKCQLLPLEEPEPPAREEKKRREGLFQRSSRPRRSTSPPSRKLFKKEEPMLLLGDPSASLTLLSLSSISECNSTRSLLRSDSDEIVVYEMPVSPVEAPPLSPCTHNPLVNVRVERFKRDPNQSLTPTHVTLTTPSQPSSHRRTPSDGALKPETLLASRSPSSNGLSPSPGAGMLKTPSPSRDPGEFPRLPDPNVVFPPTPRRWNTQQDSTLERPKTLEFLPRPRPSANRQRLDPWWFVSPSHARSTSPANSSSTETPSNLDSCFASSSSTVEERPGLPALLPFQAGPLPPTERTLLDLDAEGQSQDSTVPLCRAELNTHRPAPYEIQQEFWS

[18] = tested on: Epidermal growth factor receptor (Homo sapiens), P00533 [T790M]; test: Inhibition of human EGFR T790M mutant at 0.01 uM; format: protein assay
Sequence of Epidermal growth factor receptor (Homo sapiens), P00533 [T790M] (P00533 whole entry T790M): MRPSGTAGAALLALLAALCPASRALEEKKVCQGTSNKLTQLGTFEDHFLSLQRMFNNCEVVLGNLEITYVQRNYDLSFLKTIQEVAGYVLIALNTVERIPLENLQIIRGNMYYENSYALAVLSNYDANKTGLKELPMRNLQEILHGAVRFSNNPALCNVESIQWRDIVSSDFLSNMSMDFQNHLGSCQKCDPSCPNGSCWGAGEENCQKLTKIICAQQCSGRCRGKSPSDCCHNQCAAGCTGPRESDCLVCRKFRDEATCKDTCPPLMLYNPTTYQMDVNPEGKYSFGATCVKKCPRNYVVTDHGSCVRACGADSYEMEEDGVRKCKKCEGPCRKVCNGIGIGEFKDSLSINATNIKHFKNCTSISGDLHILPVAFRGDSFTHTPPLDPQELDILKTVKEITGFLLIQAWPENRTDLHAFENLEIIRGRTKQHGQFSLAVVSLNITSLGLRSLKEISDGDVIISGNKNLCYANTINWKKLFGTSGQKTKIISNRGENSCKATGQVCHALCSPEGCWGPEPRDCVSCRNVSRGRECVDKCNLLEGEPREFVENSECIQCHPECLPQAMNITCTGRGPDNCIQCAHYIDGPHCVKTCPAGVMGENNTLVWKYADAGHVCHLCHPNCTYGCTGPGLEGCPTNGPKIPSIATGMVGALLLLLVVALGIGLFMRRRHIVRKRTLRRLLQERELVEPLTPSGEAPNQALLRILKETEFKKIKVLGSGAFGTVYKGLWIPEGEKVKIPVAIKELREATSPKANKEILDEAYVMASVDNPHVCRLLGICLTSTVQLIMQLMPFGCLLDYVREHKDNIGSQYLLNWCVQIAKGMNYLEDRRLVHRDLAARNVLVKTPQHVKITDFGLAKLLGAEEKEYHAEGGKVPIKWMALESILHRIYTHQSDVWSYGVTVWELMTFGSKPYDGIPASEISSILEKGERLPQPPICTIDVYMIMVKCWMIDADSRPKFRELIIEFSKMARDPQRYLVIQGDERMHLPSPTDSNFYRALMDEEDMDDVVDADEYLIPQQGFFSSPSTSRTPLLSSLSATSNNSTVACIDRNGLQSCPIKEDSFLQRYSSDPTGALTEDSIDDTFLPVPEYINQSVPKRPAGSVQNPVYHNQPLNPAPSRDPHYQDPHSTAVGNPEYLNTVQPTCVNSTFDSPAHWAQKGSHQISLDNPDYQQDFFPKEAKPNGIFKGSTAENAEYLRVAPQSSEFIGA

[19] = tested on: Epidermal growth factor receptor (Homo sapiens), P00533 [L858R,T790M]; test: Inhibition of human EGFR T790M/L858R mutant at 0.1 uM; format: protein assay
Sequence of Epidermal growth factor receptor (Homo sapiens), P00533 [L858R,T790M] (P00533 whole entry T790M/L858R, looked up): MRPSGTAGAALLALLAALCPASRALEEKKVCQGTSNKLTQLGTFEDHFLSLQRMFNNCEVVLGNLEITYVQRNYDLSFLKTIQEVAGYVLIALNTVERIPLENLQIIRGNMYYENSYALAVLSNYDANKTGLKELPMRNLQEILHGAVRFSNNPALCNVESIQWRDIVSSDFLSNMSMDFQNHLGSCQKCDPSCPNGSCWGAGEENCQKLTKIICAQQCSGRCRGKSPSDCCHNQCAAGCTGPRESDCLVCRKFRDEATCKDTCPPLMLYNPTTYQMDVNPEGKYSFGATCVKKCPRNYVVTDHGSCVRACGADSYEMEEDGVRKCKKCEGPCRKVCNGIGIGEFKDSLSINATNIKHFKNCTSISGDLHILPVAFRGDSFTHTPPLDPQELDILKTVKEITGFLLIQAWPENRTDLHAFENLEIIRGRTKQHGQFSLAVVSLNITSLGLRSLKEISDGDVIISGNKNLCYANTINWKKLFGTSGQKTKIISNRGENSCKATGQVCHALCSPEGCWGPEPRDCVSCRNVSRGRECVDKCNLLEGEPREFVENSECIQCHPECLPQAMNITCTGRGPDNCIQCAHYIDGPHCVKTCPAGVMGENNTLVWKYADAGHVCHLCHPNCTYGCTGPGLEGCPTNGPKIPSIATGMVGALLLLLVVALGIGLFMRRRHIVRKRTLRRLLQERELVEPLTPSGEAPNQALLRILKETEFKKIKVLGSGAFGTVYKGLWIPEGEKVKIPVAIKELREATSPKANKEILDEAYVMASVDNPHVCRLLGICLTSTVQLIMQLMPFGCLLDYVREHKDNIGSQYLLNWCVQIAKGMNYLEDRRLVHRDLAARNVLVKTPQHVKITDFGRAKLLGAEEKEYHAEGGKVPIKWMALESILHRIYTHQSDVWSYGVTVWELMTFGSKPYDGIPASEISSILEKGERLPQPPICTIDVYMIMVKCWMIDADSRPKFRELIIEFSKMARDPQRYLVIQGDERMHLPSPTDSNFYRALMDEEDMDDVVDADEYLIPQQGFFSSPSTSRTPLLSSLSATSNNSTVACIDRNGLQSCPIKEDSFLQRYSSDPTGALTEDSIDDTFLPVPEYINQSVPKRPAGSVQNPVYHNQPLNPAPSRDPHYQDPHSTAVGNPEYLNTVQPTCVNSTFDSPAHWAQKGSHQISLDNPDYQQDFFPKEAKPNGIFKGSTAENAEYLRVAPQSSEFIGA

[20] = tested on: Proto-oncogene tyrosine-protein kinase receptor Ret (Homo sapiens), P07949 [V804L]; conditions: 0.01 uM
Sequence of Proto-oncogene tyrosine-protein kinase receptor Ret (Homo sapiens), P07949 [V804L] (P07949 whole entry V804L): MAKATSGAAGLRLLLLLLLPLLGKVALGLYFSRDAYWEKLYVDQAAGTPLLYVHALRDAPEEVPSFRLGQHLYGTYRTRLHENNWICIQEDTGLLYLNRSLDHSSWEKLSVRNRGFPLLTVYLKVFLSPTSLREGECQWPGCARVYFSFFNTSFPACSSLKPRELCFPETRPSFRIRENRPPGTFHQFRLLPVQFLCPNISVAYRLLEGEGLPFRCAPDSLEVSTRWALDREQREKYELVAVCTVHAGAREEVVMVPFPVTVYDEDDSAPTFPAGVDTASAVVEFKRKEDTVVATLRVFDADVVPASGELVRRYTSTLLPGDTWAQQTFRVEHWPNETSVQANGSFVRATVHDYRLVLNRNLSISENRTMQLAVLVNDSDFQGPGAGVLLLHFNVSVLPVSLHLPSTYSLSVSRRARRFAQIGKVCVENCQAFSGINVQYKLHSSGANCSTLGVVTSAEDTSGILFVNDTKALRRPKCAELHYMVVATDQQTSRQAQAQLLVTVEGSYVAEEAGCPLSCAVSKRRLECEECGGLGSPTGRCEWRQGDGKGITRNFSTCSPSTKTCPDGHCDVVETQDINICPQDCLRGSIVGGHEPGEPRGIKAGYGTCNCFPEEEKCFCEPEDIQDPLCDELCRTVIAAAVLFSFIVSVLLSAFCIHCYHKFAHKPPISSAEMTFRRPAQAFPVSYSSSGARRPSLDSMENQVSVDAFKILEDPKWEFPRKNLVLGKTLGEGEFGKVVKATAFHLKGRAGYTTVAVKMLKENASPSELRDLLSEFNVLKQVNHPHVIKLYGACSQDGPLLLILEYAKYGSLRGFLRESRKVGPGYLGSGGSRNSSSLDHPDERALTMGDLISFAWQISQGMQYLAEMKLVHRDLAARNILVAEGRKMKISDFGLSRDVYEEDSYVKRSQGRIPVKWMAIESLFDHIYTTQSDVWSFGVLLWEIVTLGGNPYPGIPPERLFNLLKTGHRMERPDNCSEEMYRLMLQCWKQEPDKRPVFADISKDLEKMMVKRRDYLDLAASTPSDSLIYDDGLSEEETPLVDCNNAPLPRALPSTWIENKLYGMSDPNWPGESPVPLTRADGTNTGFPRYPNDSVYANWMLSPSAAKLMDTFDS
Description: Inhibition of human Ret V804L mutant at 0.01 uM

[21] = molecular target: Tyrosine-protein kinase Fyn (Homo sapiens) (UniProt P06241); test: Inhibition of human Fyn (unknown origin) at 0.1 uM
[22] = molecular target: Tyrosine-protein kinase HCK (Homo sapiens) (UniProt P08631); test: Inhibition of human Hck at 0.1 uM
[23] = tested on: Proto-oncogene tyrosine-protein kinase receptor Ret (Homo sapiens), P07949 [V804M]; conditions: 0.01 uM
Sequence of Proto-oncogene tyrosine-protein kinase receptor Ret (Homo sapiens), P07949 [V804M] (P07949 whole entry V804M): as the sequence (P07949 whole entry V804L) above, with L804M counted along it
Description: Inhibition of human Ret V804M mutant at 0.01 uM

[24] = Volume of distribution at steady state in dog at 5 mg/kg, iv; format: ADME, organism-based, Canis lupus familiaris; conditions: in vivo, read-out: Vdss
[25] = tested on: Receptor-type tyrosine-protein kinase FLT3 (Homo sapiens), P36888 [D835Y]; test: Inhibition of human Flt3 D835Y mutant at 0.1 uM
[26] = molecular target: Voltage-gated inwardly rectifying potassium channel KCNH2 (Homo sapiens, UniProt Q12809); test: Inhibition of human ERG by manual patch clamp assay
[27] = molecular target: Serine/threonine-protein kinase PLK3 (Homo sapiens) (UniProt Q9H4B4); test: Inhibition of human Plk3 at 0.01 uM
[28] = molecular target: Tyrosine-protein kinase Blk (Homo sapiens) (UniProt P51451); test: Inhibition of human Blk at 0.1 uM
[29] = molecular target: Tyrosine-protein kinase Yes (Homo sapiens) (UniProt P07947); test: Inhibition of human Yes at 0.1 uM
[30] = molecular target: Tyrosine-protein kinase Lyn (Homo sapiens) (UniProt P07948); test: Inhibition of human Lyn at 0.1 uM
[31] = tested on: Tyrosine-protein kinase ABL1 (Homo sapiens), P00519 [Q252H]; test: Inhibition of human Abl Q252H mutant at 0.01 uM
[32] = Clearance in dog at 5 mg/kg, iv; format: ADME, organism-based, Canis lupus familiaris; conditions: in vivo
[33] = Half life in dog at 5 mg/kg, iv; format: ADME, organism-based, Canis lupus familiaris; conditions: in vivo
[34] = tested on: Proto-oncogene tyrosine-protein kinase receptor Ret (Homo sapiens), P07949 [V804L]; conditions: 0.1 uM
Description: Inhibition of human Ret V804L mutant at 0.1 uM

[35] = AUClast in dog at 10 mg/kg, po; format: ADME, organism-based, Canis lupus familiaris; set-up: dose 10 mg/kg, route oral, time 0 - last; conditions: in vivo
Mus musculus [36] = test: Anti-arthritic activity in DBA1/J mouse model of collagen-induced arthritis assessed as reduction in arthritis clinical scores at 30 mg/kg, po administered orally continued once daily and twice daily through study; format: functional
[37] = tested on: Receptor-type tyrosine-protein kinase FLT3 (Homo sapiens), P36888 [D835Y]; test: Inhibition of human Flt3 D835Y mutant at 0.01 uM
[38] = molecular target: Proto-oncogene tyrosine-protein kinase receptor Ret (Homo sapiens, UniProt P07949); test: Inhibition of human RET pre-incubated for 30 mins at room temperature before substrate addition and measured 1 hr after substrate addition by cell free kinase assay
Sequence of Proto-oncogene tyrosine-protein kinase receptor Ret (P07949 whole entry): as the sequence (P07949 whole entry V804L) above, with L804V counted along it

Mus musculus [39] = test: Anti-arthritic activity in DBA1/J mouse model of collagen-induced arthritis assessed as reduction in arthritis clinical scores at 10 mg/kg, po administered orally continued once daily and twice daily through study; format: functional
[40] = molecular target: Proto-oncogene tyrosine-protein kinase Src (Homo sapiens) (UniProt P12931); test: Inhibition of human Src (1 to 530 residues) at 0.1 uM
[41] = molecular target: Mitogen-activated protein kinase kinase kinase 9 (Homo sapiens) (UniProt P80192); test: Inhibition of human MLK1 at 0.01 uM
[42] = molecular target: Tyrosine-protein kinase Fgr (Homo sapiens) (UniProt P09769); test: Inhibition of human Fgr at 0.1 uM
[43] = tested on: Proto-oncogene tyrosine-protein kinase Src (Homo sapiens), P12931 [T341M]; test: Inhibition of human Src T341M mutant at 0.1 uM
[44] = tested on: Epidermal growth factor receptor (Homo sapiens), P00533 [T790M]; test: Inhibition of human EGFR T790M mutant at 0.1 uM; format: protein assay
[45] = tested on: Proto-oncogene tyrosine-protein kinase receptor Ret (Homo sapiens), P07949 [V804M]; conditions: 0.1 uM
Description: Inhibition of human Ret V804M mutant at 0.1 uM

[46] = tested on: Epidermal growth factor receptor (Homo sapiens), P00533 [L858R,T790M]; test: Inhibition of human EGFR T790M/L858R mutant at 0.01 uM; format: protein assay
[47] = tested on: Tyrosine-protein kinase ABL1 (Homo sapiens), P00519 [Q252H]; test: Inhibition of human Abl Q252H mutant at 0.1 uM

Cc1nn(-c2ccnc(Nc3ccc4c(c3)c(C)c(C)n4C)n2)cc1CN1CC(O)C1
Activity (Salmonella typhimurium [1]): Non-toxic
pIC50 [2]: 8.77
Activity (Salmonella typhimurium [3]): Non-toxic
Fu (Plasma): < 0.4%
pIC50 [4]: 7.25
Activity (Salmonella typhimurium [5]): Non-toxic
Activity (Salmonella typhimurium [6]): Non-toxic
Activity (Escherichia coli [7]): Non-toxic
Activity (Escherichia coli [8]): Non-toxic
Activity (Salmonella typhimurium [9]): Non-toxic
Activity (Salmonella typhimurium [10]): Non-toxic
pIC50 [11]: 6.19
Papp B→A [12]: 9.9 ×10⁻⁶ cm/s

Cc1nn(-c2ccnc(Nc3ccc4c(c3)c(Cl)c(C)n4C)n2)cc1CN1CC(O)C1
AUC(0-t) [13]: 2090 ng·h/mL
bioavailability [14]: 46.4%
inhibition [15]: < 25%
inhibition [16]: > 70%
inhibition [17]: 91%
inhibition [18]: < 50%
Activity (Salmonella typhimurium [1]): Non-toxic
inhibition [19]: > 70%
inhibition [20]: < 50%
inhibition [21]: < 25%
inhibition [22]: < 25%
inhibition [23]: < 50%
Vd [24]: 7.1 L/kg
inhibition [25]: > 70%
pIC50 [26]: 4.62
inhibition [27]: < 50%
inhibition [28]: < 25%
inhibition [29]: < 25%
inhibition [30]: < 25%
Activity (Salmonella typhimurium [3]): Non-toxic
Fu (Plasma): < 0.4%
inhibition [31]: < 50%
clearance [32]: 40.4 mL/min/kg
Activity (Salmonella typhimurium [5]): Non-toxic
half-life [33]: 4.6 h
inhibition [34]: > 70%
AUC(0-t) [35]: 1940 ng·h/mL
inhibition in vivo at 30 mg/kg (Mus musculus [36]): 50%
inhibition [37]: < 50%
pIC50 [38]: 7.17
Activity (Salmonella typhimurium [6]): Non-toxic
Activity (Escherichia coli [7]): Non-toxic
inhibition in vivo at 10 mg/kg (Mus musculus [39]): 30%
inhibition [40]: < 25%
inhibition [41]: 44%
inhibition [42]: < 25%
Activity (Escherichia coli [8]): Non-toxic
Activity (Salmonella typhimurium [9]): Non-toxic
Activity (Salmonella typhimurium [10]): Non-toxic
inhibition [43]: < 25%
inhibition [44]: > 70%
inhibition [45]: > 70%
Papp B→A [12]: 3.8 ×10⁻⁶ cm/s
inhibition [46]: < 50%
inhibition [47]: > 70%
